The source of these data is patent US10723705B2, “Heterocyclic compounds and uses thereof” (Incyte Corporation, priority 2015, dated 2020).

As usually defined, the IC50 is the midpoint of a concentration-inhibition curve.

In the test the target is Human recombinant Histone Deacetylase 8 (HDAC8) (Homo sapiens (Human), UniProt Q9BY41). In words: HDAC8 Enzymatic Assay (HDAC-Glo I/II luminescence). The format is biochemical. Particulars: class symbols, Table 14; read-out: HDAC8 IC50. The procedure:
HDAC-Glo™ I/II Assay Kit was purchased from Promega Corporation (Madison, Wis.), including the following components: HDAC-Glo I/II Buffer (25 mM Tris buffer, pH 8.0, supplemented with 137 mM: NaCl, 2.7 mM KCl, 1% v/v Triton X-100 and 1 mM: MgCl2), luminogenic substrates Boc-GAK(Ac)-aminoluciferin (HDAC-Glo I/II substrate), proprietary developer reagent (containing trypsin). Human recombinant Histone Deacetylase 8 (HDAC8) was purchased from Enzo Life Sciences (Plymouth Meeting, Pa.).
The HDAC8 reaction was performed at room temperature in white 384-well polystyrene, flat-bottom microtiter plate (Greiner Bio-one, Monroe, N.C.) in a final volume of 20 μL. Test compounds were first diluted serially in DMSO and 100 nL were transferred to the plate wells by Echo 550 (Labcyte, Sunnyvale, Calif.) before the addition of other reaction components. The final concentration of DMSO in the assay was 0.5%. The HDAC-Glo I/II assay reagent was prepared by rehydration of lyophilized HDAC-Glo I/II substrate in 10 mL. HDAC-Glo I/II assay buffer followed with the addition of 10 μL of developer reagent. 10 uL of 3 nM HDAC8 in the HDAC-Glo I/II assay buffer were first dispensed into the microliter plate containing the compounds and incubated at room temperature for 30 min. The reactions were initiated with the addition of 10 uL HDAC-Glo I/II assay reagent with Multidrop (Thermo, Waltham, Mass.). The final concentration of HDAC8 and HDAC-Glo I/II substrate in the reaction were 1.5 nM and 50 μM, respectively. The assay plate was mixed for 1 min by orbital shaking (500 rpm) and centrifuged for 1 min at 1500 rpm. After 15 min at room temperature, luminescence signals were measured on TopCount (Perkin Elmer). Wells with no compound served as the positive controls and wells containing no HDAC8 were used as negative controls. IC50 determination was performed by fitting the curve of percentage control activity versus the log of the compound concentration using the GraphPad Prism 6.0 software.

Chain of Human recombinant Histone Deacetylase 8 (HDAC8) (Q9BY41 whole entry): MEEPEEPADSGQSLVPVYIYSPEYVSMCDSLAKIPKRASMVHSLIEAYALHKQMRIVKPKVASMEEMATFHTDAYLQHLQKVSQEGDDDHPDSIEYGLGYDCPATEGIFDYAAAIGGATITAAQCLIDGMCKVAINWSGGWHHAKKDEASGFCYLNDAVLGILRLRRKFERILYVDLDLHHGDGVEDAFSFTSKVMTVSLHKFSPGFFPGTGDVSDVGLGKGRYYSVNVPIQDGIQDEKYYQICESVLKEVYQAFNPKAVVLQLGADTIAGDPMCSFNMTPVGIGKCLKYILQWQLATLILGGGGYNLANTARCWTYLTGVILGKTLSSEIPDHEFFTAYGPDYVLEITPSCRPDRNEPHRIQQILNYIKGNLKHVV

Regarding `O=C(NO)C(Cc1ccccc1)n1cc2cc(-c3ccccc3)ccc2n1` (stereo not shown) [Compound I-0036, N-hydroxy-3-phenyl-2-(5-phenyl-2H-indazol-2-yl)propanamide], the IC50 was greater than 500 nM.

For the molecule `O=C(NO)C(Cc1ccccc1)n1cc2ccc(F)cc2n1` (stereo not shown) [Compound I-0037, 2-(6-fluoro-2H-indazol-2-yl)-N-hydroxy-3-phenylpropanamide], the IC50 was greater than 500 nM.

In the case of `O=C(NO)C(Cc1ccccc1)n1cc2ccc(C(F)(F)F)cc2n1` (stereo not shown) [Compound I-0038, N-hydroxy-3-phenyl-2-(6-(trifluoromethyl)-2H-indazol-2-yl)propanamide], the IC50 was greater than 500 nM.

`Cc1cc2cn(C(Cc3ccccc3)C(=O)NO)nc2cc1Br` (stereo not shown) [Compound I-0039, 2-(6-bromo-5-methyl-2H-indazol-2-yl)-N-hydroxy-3-phenylpropanamide]: the IC50 was greater than 500 nM.

Regarding `Cc1ccc2cn(C(Cc3ccccc3)C(=O)NO)nc2c1` (stereo not shown) [Compound I-0040, N-hydroxy-2-(6-methyl-2H-indazol-2-yl)-3-phenylpropanamide], the IC50 was greater than 500 nM.

Take `O=C(NO)C(Cc1ccccc1)n1cnc2ccccc21` (stereo not shown) [Compound I-0041, 2-(1H-benzo[d]imidazol-1-yl)-N-hydroxy-3-phenylpropanamide]: the IC50 is 200 to 500 nM.

With `O=C(NO)C(Cc1ccccc1)n1ncc2cnccc21` (stereo not shown) [Compound I-0042, N-hydroxy-3-phenyl-2-(1H-pyrazolo[4,3-c]pyridin-1-yl)propanamide], the IC50 lay within 200 to 500 nM.

Take `O=C(NO)C(Cc1ccccc1)n1cc2cnccc2n1` (stereo not shown) [Compound I-0043, N-hydroxy-3-phenyl-2-(2H-pyrazolo[4,3-c]pyridin-2-yl)propanamide]: the IC50 was greater than 500 nM.

Regarding `Cn1cc(-c2ccc3nn(C(Cc4ccccc4)C(=O)NO)c(C#CC4CC4)c3c2)cn1` (stereo not shown) [Compound I-0044, 2-(3-(cyclopropylethynyl)-5-(1-methyl-1H-pyrazol-4-yl)-2H-indazol-2-yl)-N-hydroxy-3-phenylpropanamide], the IC50 was in the range of 50 to 200 nM.

Consider `O=C(NO)C(Cc1ccccc1)n1nc2ccc(-c3cccnc3)cc2c1C#CC1CC1` (stereo not shown) [Compound I-0045, 2-(3-(cyclopropylethynyl)-5-(pyridin-3-yl)-2H-indazol-2-yl)-N-hydroxy-3-phenylpropanamide], for which the IC50 fell in the range of 50 to 200 nM.

As for `COc1ccc(-c2ccc3nn(C(Cc4ccccc4)C(=O)NO)c(C#CC4CC4)c3c2)cn1` (stereo not shown) [Compound I-0046, 2-(3-(cyclopropylethynyl)-5-(6-methoxypyridin-3-yl)-2H-indazol-2-yl)-N-hydroxy-3-phenylpropanamide], the IC50 lay in the range of 200 to 500 nM.

Turning to `Cn1nccc1-c1ccc2cn(C(Cc3ccccc3)C(=O)NO)nc2c1` (stereo not shown) [Compound I-0047, N-hydroxy-2-(6-(1-methyl-1H-pyrazol-5-yl)-2H-indazol-2-yl)-3-phenylpropanamide], the IC50 is 200 to 500 nM.

Take `CN1CCC(c2ccc3cn(C(Cc4ccccc4)C(=O)NO)nc3c2)CC1` (stereo not shown) [Compound I-0048, N-hydroxy-2-(6-(1-methylpiperidin-4-yl)-2H-indazol-2-yl)-3-phenylpropanamide]: the 50% inhibitory concentration (IC50) was greater than 500 nM.

For `Cc1ccc2nn(C(Cc3ccccc3)C(=O)NO)cc2c1` (stereo not shown) [Compound I-0049, N-hydroxy-2-(5-methyl-2H-indazol-2-yl)-3-phenylpropanamide], the IC50 is greater than 500 nM.

For `O=C(NO)C(Cc1ccccc1)n1cc2cc(-c3ccncc3)ccc2n1` (stereo not shown) [Compound I-0050, N-hydroxy-3-phenyl-2-(5-(pyridin-4-yl)-2H-indazol-2-yl)propanamide], the IC50 is 200 to 500 nM.

As to `O=C(NO)C(Cc1ccccc1)n1cc2cc(-c3cncnc3)ccc2n1` (stereo not shown) [Compound I-0051, N-hydroxy-3-phenyl-2-(5-(pyrimidin-5-yl)-2H-indazol-2-yl)propanamide], the 50% inhibitory concentration (IC50) was 200 to 500 nM.

On to `O=C(NO)C(Cc1ccccc1)n1cc2ccc(N3CCCCC3)cc2n1` (stereo not shown) [Compound I-0052, N-hydroxy-3-phenyl-2-(6-(piperidin-1-yl)-2H-indazol-2-yl)propanamide], for which the IC50 was greater than 500 nM.

For `O=C(NO)C(Cc1ccccc1)n1cc2cncc(C#CC3CC3)c2n1` (stereo not shown) [Compound I-0053, 2-(7-(cyclopropylethynyl)-2H-pyrazolo[4,3-c]pyridin-2-yl)-N-hydroxy-3-phenylpropanamide], the IC50 fell in the range of 200 to 500 nM.

Take `O=C(NO)C(Cc1ccccc1)n1cc2cncc(I)c2n1` (stereo not shown) [Compound I-0054, N-hydroxy-2-(7-iodo-2H-pyrazolo[4,3-c]pyridin-2-yl)-3-phenylpropanamide]: the IC50 was greater than 500 nM.

In the case of `O=C(NO)C(Cc1ccccc1)n1ncc2c(Cl)nccc21` (stereo not shown) [Compound I-0055, 2-(4-chloro-1H-pyrazolo[4,3-c]pyridin-1-yl)-N-hydroxy-3-phenylpropanamide], the IC50 was 200 to 500 nM.

Consider `O=C(NO)C(Cc1ccccc1)n1cc2c(Cl)nccc2n1` (stereo not shown) [Compound I-0056, 2-(4-chloro-2H-pyrazolo[4,3-c]pyridin-2-yl)-N-hydroxy-3-phenylpropanamide], for which the IC50 is greater than 500 nM.

With `CN1CC=C(c2cccc3nn(C(Cc4ccccc4)C(=O)NO)cc23)CC1` (stereo not shown) [Compound I-0057, N-hydroxy-2-(4-(1-methyl-1,2,3,6-tetrahydropyridin-4-yl)-2H-indazol-2-yl)-3-phenylpropanamide], the IC50 is greater than 500 nM.

As for `O=C(NO)C(Cc1ccccc1)n1cc2c(-c3ccncc3)cccc2n1` (stereo not shown) [Compound I-0058, N-hydroxy-3-phenyl-2-(4-(pyridin-4-yl)-2H-indazol-2-yl)propanamide], the IC50 was in the range of 200 to 500 nM.

For `O=C(NO)C(Cc1ccccc1)n1cc2c(N3CCOCC3)cccc2n1` (stereo not shown) [Compound I-0059, N-hydroxy-2-(4-morpholino-2H-indazol-2-yl)-3-phenylpropanamide], the IC50 was greater than 500 nM.

Take `O=C(NO)C(Cc1ccccc1)n1cc2c(-c3ccccc3)cccc2n1` (stereo not shown) [Compound I-0060, N-hydroxy-3-phenyl-2-(4-phenyl-2H-indazol-2-yl)propanamide]: the IC50 is greater than 500 nM.

As to `Cn1nccc1-c1cccc2nn(C(Cc3ccccc3)C(=O)NO)cc12` (stereo not shown) [Compound I-0061, N-hydroxy-2-(4-(1-methyl-1H-pyrazol-5-yl)-2H-indazol-2-yl)-3-phenylpropanamide], the IC50 lay within 200 to 500 nM.

In the case of `O=C(NO)C(Cc1ccccc1)n1cc2c(C3CC3)cccc2n1` (stereo not shown) [Compound I-0062, 2-(4-cyclopropyl-2H-indazol-2-yl)-N-hydroxy-3-phenylpropanamide], the IC50 is greater than 500 nM.

For `O=C(NO)C(Cc1ccccc1)n1cc2c(-c3cncnc3)cccc2n1` (stereo not shown) [Compound I-0063, N-hydroxy-3-phenyl-2-(4-(pyrimidin-5-yl)-2H-indazol-2-yl)propanamide], the IC50 fell in the range of 200 to 500 nM.

As to `Cc1cccc2nn(C(Cc3ccccc3)C(=O)NO)cc12` (stereo not shown) [Compound I-0064, N-hydroxy-2-(4-methyl-2H-indazol-2-yl)-3-phenylpropanamide], the IC50 is greater than 500 nM.

Consider `CN1CCC(c2cccc3nn(C(Cc4ccccc4)C(=O)NO)cc23)CC1` (stereo not shown) [Compound I-0065, N-hydroxy-2-(4-(1-methylpiperidin-4-yl)-2H-indazol-2-yl)-3-phenylpropanamide], for which the IC50 is greater than 500 nM.

Take `O=C(NO)C(Cc1ccccc1)n1cc2cccc(-c3ccccc3)c2n1` (stereo not shown) [Compound I-0066, N-hydroxy-3-phenyl-2-(7-phenyl-2H-indazol-2-yl)propanamide]: the IC50 was greater than 500 nM.

Regarding `Cn1nccc1-c1cccc2cn(C(Cc3ccccc3)C(=O)NO)nc12` (stereo not shown) [Compound I-0067, N-hydroxy-2-(7-(1-methyl-1H-pyrazol-5-yl)-2H-indazol-2-yl)-3-phenylpropanamide], the IC50 lay within 50 to 200 nM.

`O=C(NO)C(Cc1ccccc1)n1cc2cccc(Br)c2n1` (stereo not shown) [Compound I-0068, 2-(7-bromo-2H-indazol-2-yl)-N-hydroxy-3-phenylpropanamide]: the IC50 lay within 200 to 500 nM.

`Cn1nccc1-c1nccc2c1cnn2C(Cc1ccccc1)C(=O)NO` (stereo not shown) [Compound I-0069, N-hydroxy-2-(4-(1-methyl-1H-pyrazol-5-yl)-1H-pyrazolo[4,3-c]pyridin-1-yl)-3-phenylpropanamide]: the IC50 lay in the range of 50 to 200 nM.

Take `O=C(NO)C(Cc1ccccc1)n1ncc2c(-c3ccncc3)nccc21` (stereo not shown) [Compound I-0070, N-hydroxy-3-phenyl-2-(4-(pyridin-4-yl)-1H-pyrazolo[4,3-c]pyridin-1-yl)propanamide]: the IC50 is 50 to 200 nM.

For `O=C(NO)C(Cc1ccccc1)n1ncc2c(-c3cncnc3)nccc21` (stereo not shown) [Compound I-0071, N-hydroxy-3-phenyl-2-(4-(pyrimidin-5-yl)-1H-pyrazolo[4,3-c]pyridin-1-yl)propanamide], the IC50 lay within 50 to 200 nM.

With `Cn1nccc1-c1ccc2c(cnn2C(Cc2ccccc2)C(=O)NO)n1` (stereo not shown) [Compound I-0072, N-hydroxy-2-(5-(1-methyl-1H-pyrazol-5-yl)-1H-pyrazolo[4,3-b]pyridin-1-yl)-3-phenylpropanamide], the IC50 fell in the range of 200 to 500 nM.
